Results as given in patent US5410024A, “Human cancer inhibitory pentapeptide amides” (Arizona Board of Regents acting on behalf of Arizona State …, priority 1993, dated 1995).

How the values were obtained:
[1] = system: OVCAR-3; test: NCI human tumor cell line screen, Ovarian OVCAR-3; assay type: cell-based; details: minipanel comparison, column A (key not visible; values match OVCAR-3)
Description: (§1) Current research in the control of cancer in the United States is coordinated by the National Cancer Institute (NCI). To determine whether a substance has anti-cancer properties, the NCI has established a systematic protocol. […] The protocol, and the established statistical means for analyzing the results obtained by the standardized testing are fully described in the literature. […] Both of these references are incorporated herein by this reference thereto.

[2] = system: SF-295; test: NCI human tumor cell line screen, CNS SF-295; assay type: cell-based; details: minipanel comparison, column B (key not visible; values match SF-295)
Description: as §1

[3] = system: A498; test: NCI human tumor cell line screen, Renal A498; assay type: cell-based; details: minipanel comparison, column C (key not visible; values match A498)
Description: as §1

[4] = system: NCI-H460; test: NCI human tumor cell line screen, Lung-NSC NCI-H460; assay type: cell-based; details: minipanel comparison, column D (key not visible; values match NCI-H460)
Description: as §1

[5] = system: KM20L2; test: NCI human tumor cell line screen, Colon KM20L2; assay type: cell-based; details: minipanel comparison
Description: as §1

[6] = system: SK-MEL-5; test: NCI human tumor cell line screen, Melanoma SK-MEL-5; assay type: cell-based; details: minipanel comparison, column F (key not visible; values match SK-MEL-5)
Description: as §1

[7] = system: P388 Lymphocytic Leukemia; test: Murine in vivo system, P388 Lymphocytic Leukemia
[8] = system: L1210 Lymphocytic Leukemia; test: Murine in vivo system, L1210 Lymphocytic Leukemia
[9] = system: B16 Melanoma; test: Murine in vivo system, B16 Melanoma
[10] = system: Human Mammary Xenograph; test: Human Mammary Xenograph, Nude Mouse; assay type: in vivo; details: 26 μg/kg
[11] = system: M5076 Ovary Sarcoma; test: Murine in vivo system, M5076 Ovary Sarcoma
[12] = system: OVCAR-3 Human Ovary Xenograph; test: OVCAR-3 Human Ovary Xenograph, Nude Mouse; assay type: in vivo; details: OVCAR-3 xenograph, 40 μg/kg
[13] = system: LOX Human Melanoma Xenograph; test: LOX Human Melanoma Xenograph (Nude Mouse); assay type: in vivo
[14] = system: MX-1 Human Mammary Xenograft; test: MX-1 Human Mammary Xenograft (Tumor Regression); assay type: in vivo, Murine
[15] = LOX in separate experiments, 9.0 μg/kg
[16] = LOX in separate experiments, 26 μg/kg
[17] = LOX in separate experiments, 43 μg/kg

In the case of Dolastatin 10, the “GI50, minipanel cell line A” value [1] is reported as 0.00095 ng/mL, the “GI50, minipanel cell line B” value [2] is reported as 7.6e-05 ng/mL and the “GI50, minipanel cell line C” value [3] is reported as 0.026 ng/mL. For the same substance, the “GI50, minipanel cell line D” value [4] was 0.0034 ng/mL, the “GI50, minipanel cell line E” value [5] was 0.0047 ng/mL and the “GI50, minipanel cell line F” value [6] was 0.0074 ng/mL. The cures ([7]; P388, 3.25 μg/kg) was 17%, the cures ([7]; P388, 6.5 μg/kg) was 17% and the T/C ([7]; P388, 13.0 μg/kg) was “toxic”. The T/C ([8]; L1210, 1.63 μg/kg) was 120, the T/C ([8]; L1210, 3.25 μg/kg) was 139 and the T/C ([8]; L1210, 6.5 μg/kg) was 135. The T/C ([8]; L1210, 13 μg/kg) was 152, the T/C ([9]; B16, 1.44 μg/kg) was 142 and the T/C ([9]; B16, 3.4 μg/kg) was 171. It also gave a T/C ([9]; B16, 4.0 μg/kg) of 205, a T/C ([9]; B16, 6.67 μg/kg) of 182 and a T/C ([9]; B16, 11.11 μg/kg) of 238. For the same substance, the cures ([9]; B16, 11.11 μg/kg) was 40%, the T/C [10] was “Toxic” and the T/C ([11]; M5076, 3.25 μg/kg) was 151. For the same substance, the T/C ([11]; M5076, 6.5 μg/kg) was 142, the T/C ([11]; M5076, 13 μg/kg) was 166 and the T/C ([11]; M5076, 26 μg/kg) was “toxic”. The T/C [12] was 300, the T/C [13, 15] was 138 and the cures [13, 15] was 17%. The T/C ([13]; LOX in separate experiments, 15 μg/kg) was 192, the T/C [13, 16] was 181 and the cures [13, 16] was 33%. It also gave a T/C [13, 17] of 340, a cures [13, 17] of 50% and a T/C ([13]; LOX, 3.25 μg/kg) of 170. For the same substance, the cures ([13]; LOX, 3.25 μg/kg) was 17%, the cures ([13]; LOX, 6.5 μg/kg) was 33% and the cures ([13]; LOX, 13 μg/kg) was 50%. For the same substance, the cures ([13]; LOX, 26 μg/kg) was 67%, the T/C ([13]; LOX, 52 μg/kg) was “toxic” and the “T/C (Tumor Regression)” value ([14]; MX-1, 6.25 μg/kg) was 69. For the same substance, the “T/C (Tumor Regression)” value ([14]; MX-1, 13 μg/kg) was 61, the “T/C (Tumor Regression)” value ([14]; MX-1, 26 μg/kg) was 50 and the “T/C (Tumor Regression)” value ([14]; MX-1, 52 μg/kg) was 14.
